Reference: patent US9255072B2, “Pyrazole compounds and thiazole compounds as protein kinases inhibitors” (National Health Rsearch Institutes, priority 2011, dated 2016)
Where two headings read alike, the source gives them in different places.

Columns and labels:
Assay type in all cases: biochemical
[1] = target: T1, wt-FLT3 (Homo sapiens, UniProt P36888); assay: FLT3 WT Kinase-Glo assay; settings: FLT3 WT Kinase-Glo, 1 μM ATP; read-out: IC50
T1 construct: FLT3 kinase catalytic domain (residues Y567˜S993); made in house; host or cells: Sf9 insect cells (baculovirus, pBac-PAK8-GST-FLT3-KD plasmid)
T1 sequence (P36888 567-993): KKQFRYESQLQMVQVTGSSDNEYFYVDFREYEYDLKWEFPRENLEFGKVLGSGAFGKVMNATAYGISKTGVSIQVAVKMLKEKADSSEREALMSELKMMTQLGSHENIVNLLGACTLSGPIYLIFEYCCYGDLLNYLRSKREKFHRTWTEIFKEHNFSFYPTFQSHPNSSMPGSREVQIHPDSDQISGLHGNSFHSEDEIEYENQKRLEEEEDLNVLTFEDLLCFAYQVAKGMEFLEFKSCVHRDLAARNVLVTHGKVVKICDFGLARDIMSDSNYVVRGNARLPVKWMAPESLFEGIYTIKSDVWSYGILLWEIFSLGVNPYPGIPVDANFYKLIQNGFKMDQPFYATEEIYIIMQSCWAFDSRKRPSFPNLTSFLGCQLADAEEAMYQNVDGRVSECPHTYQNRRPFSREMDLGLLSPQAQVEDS
Protocol: GST-FLT3-KD^WT containing the FLT3 kinase catalytic domain (residues Y567˜S993) were expressed in Sf9 insect cells transfected the baculovirus containing pBac-PAK8-GST-FLT3-KD plasmid. […] Following incubation, 50 μl Kinase-Glo Plus Reagent (Promega, Madison, Wis., USA) was added to each well and the mixture was incubated at 25° C. for 20 min. A 70-μL aliquot of each reaction mixture was transferred to a black microtiter plate and the luminescence was measured on Wallac Vector 1420 multilabel counter (PerkinElmer, Shelton, Conn., USA).

[2] = target: T2, VEGFR2 (Homo sapiens, UniProt P35968); assay: VEGFR2 Kinase-Glo kinase assay; settings: 1 μM ATP
T2 construct: GST-VEGFR2 (residues V789-V1356); GST (N); made in house; host or cells: Sf9 insect cells
Protocol: (§1) The recombinant GST-VEGFR1 (residues R781-I1338) or GST-VEGFR2 (residues V789-V1356) containing kinase domain were expressed in Sf9 insect cells. The kinase assay were carried out in 96-well plates with tested compound in a final volume of 50 μl reaction at 30° C. for 120 minutes with following components: 25 mM HEPES pH 7.4, 10 mM MgCl2, 4 mM MnCl2, 0.5 mM Na3VO4, 2 mM DTT, 0.02% Triton X100, 0.01% BSA, 1 μM ATP, 2 μM polyGlu4:Tyr peptide, 50˜100 ng recombinant VEGFR1 or VEGFR2. Following incubation, 50 μl Kinase-Glo Plus Reagent (Promega, Madison, Wis., USA) was added to each well and the mixture was incubated at 25° C. for 20 min. A 70-μL aliquot of each reaction mixture was transferred to a black microtiter plate and the luminescence was measured on Wallac Vector 1420 multilabel counter (PerkinElmer, Shelton, Conn., USA).

[3] = target: T3, VEGFR1 (Homo sapiens, UniProt P17948); assay: VEGFR1 Kinase-Glo kinase assay; settings: 1 μM ATP
T3 construct: GST-VEGFR1 (residues R781-I1338); GST (N); made in house; host or cells: Sf9 insect cells
T3 sequence (P17948 781-1338): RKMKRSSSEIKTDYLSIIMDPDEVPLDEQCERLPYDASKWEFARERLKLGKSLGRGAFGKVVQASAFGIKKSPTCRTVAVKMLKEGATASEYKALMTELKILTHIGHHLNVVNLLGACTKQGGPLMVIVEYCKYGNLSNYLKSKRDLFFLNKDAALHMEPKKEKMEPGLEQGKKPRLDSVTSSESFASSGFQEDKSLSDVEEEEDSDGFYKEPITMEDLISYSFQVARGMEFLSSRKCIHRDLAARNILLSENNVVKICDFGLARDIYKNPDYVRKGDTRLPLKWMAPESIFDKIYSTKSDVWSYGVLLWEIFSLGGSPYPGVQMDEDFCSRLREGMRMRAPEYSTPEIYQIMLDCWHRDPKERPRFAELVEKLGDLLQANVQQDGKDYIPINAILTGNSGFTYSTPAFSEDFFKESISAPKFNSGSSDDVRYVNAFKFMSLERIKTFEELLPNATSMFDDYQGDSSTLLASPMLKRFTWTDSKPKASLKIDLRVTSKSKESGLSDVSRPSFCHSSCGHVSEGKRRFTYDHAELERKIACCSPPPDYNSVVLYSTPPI
Protocol: as §1

[4] = VEGFR2 assay, bound in μM, read-out: IC50
[5] = VEGFR2 assay, ranges in nM, read-out: IC50
[6] = VEGFR1 assay, bound in μM, read-out: IC50
[7] = VEGFR1 assay, bound in nM, read-out: IC50
[8] = IC50, VEGFR2 assay, bound in μM
[9] = IC50, VEGFR2 assay, ranges in nM
[10] = IC50, VEGFR1 assay, bound in μM

T2 sequence (P35968 789-1356): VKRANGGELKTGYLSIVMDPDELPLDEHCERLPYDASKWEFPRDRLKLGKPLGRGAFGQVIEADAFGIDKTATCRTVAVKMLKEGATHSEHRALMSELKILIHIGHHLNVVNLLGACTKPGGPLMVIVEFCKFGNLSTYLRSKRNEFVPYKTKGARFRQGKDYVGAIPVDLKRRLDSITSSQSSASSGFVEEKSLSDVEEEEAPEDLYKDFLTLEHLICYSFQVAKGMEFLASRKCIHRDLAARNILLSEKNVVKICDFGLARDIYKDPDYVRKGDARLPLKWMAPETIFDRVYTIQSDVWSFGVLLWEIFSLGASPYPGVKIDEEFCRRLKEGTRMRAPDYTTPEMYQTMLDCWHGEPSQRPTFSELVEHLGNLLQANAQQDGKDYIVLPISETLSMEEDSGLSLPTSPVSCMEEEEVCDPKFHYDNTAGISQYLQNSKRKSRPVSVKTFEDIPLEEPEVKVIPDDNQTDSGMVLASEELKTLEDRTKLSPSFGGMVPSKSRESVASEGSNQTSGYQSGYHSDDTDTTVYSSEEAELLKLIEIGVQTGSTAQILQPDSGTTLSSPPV

IC50 [1]	IC50 [2, 4]	IC50 [2, 5]	Compound	also measured
1 to 20 nM			CN1CCN(c2ccc(C(=O)Nc3cc(-c4ccc(N)cc4)n[nH]3)cc2)CC1 [Compound 2, N1-[3-(4-aminophenyl)-1H-5-pyrazolyl]-4-(4-methylpiperazino)benzamide]	
1 to 20 nM	< 1 µM	0.055 to 0.4 µM	Cc1cc(-c2cc(NC(=O)c3ccc(N4CCN(C)CC4)cc3)[nH]n2)ccc1N [Compound 6, N1-[3-(4-amino-3-methylphenyl)-1H-5-pyrazolyl]-4-(4-methylpiperazino)benzamide]	
1 to 20 nM			CN1CCN(c2ccc(C(=O)Nc3cc(-c4ccc(CNC(=O)c5ccccc5)cc4)n[nH]3)cc2)CC1 [Compound 11, N1-(3-4-[(benzoylamino)methyl]phenyl-1H-5-pyrazolyl)-4-(4-methylpiperazino)benzamide]	
1 to 20 nM	< 1 µM	0.055 to 0.4 µM	O=C(Nc1cc(-c2cccc(NS(=O)(=O)c3ccccc3)c2)n[nH]1)c1ccc(OCCN2CCCC2)cc1 [Compound 24, N1-(3-3-[(phenylsulfonyl)amino]phenyl-1H-5-pyrazolyl)-4-(2-tetrahydro-1H-1-pyrrolylethoxy)benzamide]	IC50 [3, 6]: < 1 µM
1 to 20 nM	< 1 µM	0.001 to 0.055 µM	CN1CCN(c2ccc(C(=O)Nc3cc(-c4ccc(NC(=O)Nc5cc(C(C)(C)C)on5)cc4)n[nH]3)cc2)CC1 [Compound 37, N1-(3-4-[([5-(tert-butyl)-3-isoxazolyl]aminocarbonyl)amino]phenyl-1H-5-pyrazolyl)-4-(4-methylpiperazino)benzamide]	IC50 [3, 7]: < 0.1 µM; IC50 [3, 6]: < 1 µM
1 to 20 nM	< 1 µM	0.001 to 0.055 µM	CN1CCN(c2ccc(C(=O)Nc3cc(-c4ccc(CNC(=O)Nc5ccccc5)cc4)n[nH]3)cc2)CC1 [Compound 51, N1-[3-(4-[(anilinocarbonyl)amino]methylphenyl)-1H-5-pyrazolyl]-4-(4-methylpiperazino)benzamide]	
1 to 20 nM	< 1 µM	0.001 to 0.055 µM	Cc1cc(NC(=O)NCc2ccc(-c3cc(NC(=O)c4ccc(OCCN5CCCC5)cc4)[nH]n3)cc2)no1 [Compound 57, N1-(3-4-[([(5-methyl-3-isoxazolyl)amino]carbonylamino)methyl]phenyl-1H-5-pyrazolyl)-4-(2-tetrahydro-1H-1-pyrrolylethoxy)benzamide]	
1 to 20 nM	< 1 µM	0.001 to 0.055 µM	CC(C)(C)c1cc(NC(=O)NCc2ccc(-c3cc(NC(=O)c4ccc(OCCN5CCOCC5)cc4)[nH]n3)cc2)no1 [Compound 60, N1-[3-(4-[([5-(tert-butyl)-3-isoxazolyl]aminocarbonyl)amino]methylphenyl)-1H-5-pyrazolyl]-4-(2-morpholinoethoxy)benzamide]	
1 to 20 nM	< 1 µM	0.055 to 0.4 µM	O=C(NCc1ccc(-c2cc(NC(=O)c3ccc(OCCN4CCCC4)cc3)[nH]n2)cc1)OCc1ccccc1 [Compound 73, Benzyl-N-[4-(5-[4-(2-tetrahydro-1H-1-pyrrolylethoxy)benzoyl]amino-1H-3-pyrazolyl)benzyl]carbamate]	IC50 [3, 7]: < 0.1 µM; IC50 [3, 6]: < 1 µM
1 to 20 nM	< 1 µM	0.055 to 0.4 µM	Cc1cc(COC(=O)NCc2ccc(-c3cc(NC(=O)c4ccc(N5CCN(C)CC5)cc4)[nH]n3)cc2)no1 [Compound 75, (5-Methyl-3-isoxazolyl)methyl-N-[4-(5-[4-(4-methylpiperazino)benzoyl]amino-1H-3-pyrazolyl)benzyl]carbamate]	IC50 [3, 6]: < 1 µM
1 to 20 nM			CN1CCN(Cc2ccc(C(=O)Nc3cc(-c4ccc(CNC(=O)OCc5ccccc5)cc4)n[nH]3)cc2)CC1 [Compound 77, Benzyl-N-4-[5-(4-[(4-methylpiperazino)methyl]benzoylamino)-1H-3-pyrazolyl]benzylcarbamate]	
1 to 20 nM			O=C(NCc1ccc(-c2cc(NC(=O)c3ccc(OCCN4CCOCC4)cc3)[nH]n2)cc1)OCc1cccnc1 [Compound 80, 3-Pyridylmethyl-N-[4-(5-[4-(2-morpholinoethoxy)benzoyl]amino-1H-3-pyrazolyl)benzyl]carbamate]	
1 to 20 nM	< 1 µM	0.055 to 0.4 µM	Cc1nc(Nc2cc(-c3ccc(CNC(=O)OCc4ccccc4)cc3)n[nH]2)cc(N2CCN(C)CC2)n1 [Compound 96, Benzyl-N-[4-(5-[2-methyl-6-(4-methylpiperazino)-4-pyrimidinyl]amino-1H-3-pyrazolyl)benzyl]carbamate]	IC50 [3, 6]: < 1 µM
1 to 20 nM	< 1 µM	0.055 to 0.4 µM	Cc1nc(Nc2cc(-c3ccc(CNC(=O)OCc4ccccc4)cc3)n[nH]2)cc(N2CCN(CCO)CC2)n1 [Compound 97, Benzyl-N-4-[5-(6-[4-(2-hydroxyethyl)piperazino]-2-methyl-4-pyrimidinylamino)-1H-3-pyrazolyl]benzylcarbamate]	
1 to 20 nM			Cc1nc(Nc2cc(-c3ccc(CNC(=O)OCc4cc(C)on4)cc3)n[nH]2)cc(N2CCN(C)CC2)n1 [Compound 99, (5-Methyl-3-isoxazolyl)methyl-N-[4-(5-[2-methyl-6-(4-methylpiperazino)-4-pyrimidinyl]amino-1H-3-pyrazolyl)benzyl]carbamate]	
1 to 20 nM			Cc1nc(Nc2cc(-c3ccc(CNC(=O)OCc4cccnc4)cc3)n[nH]2)cc(N2CCN(C)CC2)n1 [Compound 101, 3-Pyridylmethyl-N-[4-(5-[2-methyl-6-(4-methylpiperazino)-4-pyrimidinyl]amino-1H-3-pyrazolyl)benzyl]carbamate]	

Compound	IC50 [1]	IC50 [2, 4]	IC50 [2, 5]	also measured
CN1CCN(c2ccc(C(=O)Nc3cc(-c4ccc(NC(=O)Oc5ccccc5)cc4)n[nH]3)cc2)CC1 [Compound 68, Phenyl-N-[4-(5-[4-(4-methylpiperazino)benzoyl]amino-1H-3-pyrazolyl)phenyl]carbamate]	1 to 20 nM			IC50 [2, 8]: < 1 µM; IC50 [2, 9]: 0.055 to 0.4 µM; IC50 [3, 10]: < 1 µM
CN1CCN(c2ccc(C(=O)Nc3cc(-c4ccc(CNC(=O)Oc5ccccc5)cc4)n[nH]3)cc2)CC1 [Compound 82, Phenyl-N-[4-(5-[4-(4-methylpiperazino)benzoyl]amino-1H-3-pyrazolyl)benzyl]carbamate]	1 to 20 nM			IC50 [2, 8]: < 1 µM; IC50 [2, 9]: 0.055 to 0.4 µM; IC50 ([3]; IC50, VEGFR1 assay, bound in nM): < 0.1 µM; IC50 [3, 10]: < 1 µM
